From patent EP0612525B1, “Transdermal treatment with mast cell degranulating agents for drug-induced hypersensitivity” (BRISTOL-MYERS SQUIBB COMPANY, priority 1993, dated 1994)
“And” between values parts separate entries of the source, which are not always exact repeats. Identical values can stand only once.

Tests used:
[1] = tested on: BALB/c female mice; experiment: Contact hypersensitivity, TNBS sensitization / TNCB ear challenge (ear swelling); assay type: in vivo
[2] = Percutaneous permeation of urocanic acid isomers through human cadaver skin (Franz cell diffusion chambers); assay type: in vitro ADME; conditions: in words
Procedure: Skin permeation experiments were undertaken to measure the flux of cis-UCA and the trans-UCA) through human skin. This information is required for topical delivery of cis-UCA using a TDS.
cis-UCA was prepared by ultraviolet irradiation of solutions of trans-UCA (obtained from Sigma Chemical Co., St. Louis, MO), as described above (see Example 1 above).
For skin permeation experiments, human cadaver skin was obtained and sectioned on a dermatome to yield a partial thickness skin of about 400 µm. Partial thickness skin samples were transferred to standard Franz cell diffusion chambers with the stratum corneum side up, and equilibrated with phosphate buffered saline (PBS) at pH 7.2. at 35°C in standard thermal blocks (Pierce Reacti-Therm).
Three different solution of UV-irradiated UCA were prepared. All samples were mixtures of both cis-UCA and trans-UCA, contained about between 55% to 67% cis-UCA. The three different solutions (0.5 ml) were applied to the skin samples in the donor chamber of the diffusion chamber, and fractions of the receptor solution (saline) were collected and the amount of cis and trans isomers that permeated through the skin determined by standard HPLC methods. […] The tissue extracts were neutralized and aliquots analyzed by HPLC.

[3] = tested on: BALB/c female mice; experiment: Contact hypersensitivity, TNBS sensitization / TNCB ear challenge (ear swelling); assay type: in vivo; conditions: TNBS 35 µg
Procedure: BALB/c female mice were maintained in a specific pathogen-free colony. Age-matched mice between 8 and 12 weeks of age were maintained in filter-protected cages and fed mouse chow and water ad libitum. Lighting was controlled to provide 12 hours light-dark cycles.
A 7% (w/v) working solution of trinitrobenzene sulfonate (TNBS) was prepared in distilled water. […] For induction of sensitization, each of 5 Balb/c mice received epicutaneous application of 35 µg of TNBS via a Hilltop chamber for 5 hours.
A contact hypersensitivity response was elicited on day 5 by challenging the right ear of each mouse with 20 µl of 1% trinitronchlorobenzene (TNCB) (in acetone). Ear thickness was measured with a spring-loaded caliper immediately before challenge, and at 24 and 48 hours after challenge. Ear thickness was measured in mm X 10^-3.
The statistical significance of differences in the contact hypersensitivity response between control and treated mice was determined using Student's t test for two independent variables. Each group contained five mice. Negative control mice were treated for 24 hours with 100 µl of PBS, pH 5.5, and challenged on the right ear 5 days later with 20 µl of 1% TNCB.
The mice were then epicutaneously sensitized with 100 µl of 0.035% TNBS (w/v) in PBS, pH 5.5.
For pretreatment plus co-administration, mice were first pretreated for 24 hours as above. Thereafter, 6000 µg of UCA (100 µl of 6% solution, 60 mg/ml in PBS pH 5.5) were placed in the Hilltop chamber along with 35 µg of TNBS.
Sensitization with TNBS was induced as described above.

[4] = tested on: Balb/c mice; experiment: Contact hypersensitivity, DNCB sensitization / DNCB ear challenge (ear swelling); assay type: in vivo
[5] = tested on: Balb/c mice; experiment: Immune tolerance induction: re-sensitization with DNCB at a second skin site and re-challenge; assay type: in vivo; conditions: for EAR THICKNESS: DNCB 100 µg re-sensitization day 22, 24 Hours after re-challenge; for % SUPPRESSION / EAR SWELLING: DNCB day 22, 24 Hours
Procedure: To induce immune tolerance, Balb/c mice were treated with CUA in gel formulation as outlined above and a sensitization response elicited in the standard manner. Two weeks later, the previously sensitized mice were re-sensitized by applying 10 µl of 1% DNCB to a second skin site on shaved backs of both control (non-sensitized) and experimental (immunosuppressed by prior treatment with CUA) mice. Both control and experimental animals were challenged 5 days later by application of 20 µl of 1% DNCB to the left ear; ear thickness measurements were made 24 hours later.
Balb/c mice (N=8) were pretreated for 24 hours with 1% CUA in HPMC gel or 5% CUA in HPMC gel on the shaved abdominal skin (site 1), and challenged on the right ear five days later. The CUA-treated mice were immunosuppressed as shown in Table X. The same mice were re-sensitized with DNCB on a demarcated area of their shaved backs and rechallenged five days later on their left ears, and the ear thickness measured 24 hours post-challenge.

[6] = tested on: inflamed skin; experiment: Anti-inflammatory effect on bee-sting inflamed skin (single human subject); assay type: in vivo
Procedure: A subject was stung by a bee on the medial aspect of the lower portion of the right leg. Within one hour the skin site surrounding the bite became inflamed and an allergic reaction of the delayed hypersensitivity type was seen 24 hours later. […] This response persisted for several days.
The affected area was treated by application of 2% cis-UCA in a gel formulation (hydroxylpropylmethyl cellulose) to a 2-3 cm^2 area of inflamed skin. For a control, a similarly sized area of inflamed skin received the same hydroxylpropylmethyl cellulose gel without cis-UCA. Both treated areas were covered with a transparent dressing.

[7] = tested on: dermal mast cells; experiment: Chymase depletion from mast cells in skin organ cultures (immunohistochemical staining); assay type: cell-based
Procedure: Chymase is a proteolytic enzyme with chymotrypsin activity that is released from dermal mast cells upon degranulation. The enzyme has been implicated in proteolytic breakdown of endothelial cell basement membrane matrix proteins and to thereby facilitate leukocyte diapedesis. The release of chymase from mast cells was detected as a depletion of chymase-specific immunohistochemical staining observed in cryosections of the dermis in skin organ cultures. As a positive control 5 mM of morphine sulfate (MSO4 + ctrl) was added to the culture medium bathing the skin organ cultures. The negative control was untreated culture medium (SCM-ctrl). Cis-urocanic acid was added to the culture medium at 1 µg/ml and 10 µg/ml.

[8] = 2 mg (1%) HPMC gel pretreat, DNCB 100 µg, 24 Hours
[9] = 2 mg (1%) HPMC gel pretreat, DNCB 100 µg, 72 Hours
[10] = 10 mg (5%) HPMC gel pretreat, DNCB 100 µg, 24 Hours
[11] = 10 mg (5%) HPMC gel pretreat, DNCB 100 µg, 72 Hours
[12] = 5 Hours Pretreat 15 mg + DNCB 100 µg, 24 Hours
[13] = 5 Hours Pretreat 15 mg + DNCB 100 µg, 48 Hours
[14] = 24 Hours Pretreat 10 mg, then DNCB gel 100 µg, 24 Hours
[15] = 24 Hours Pretreat 10 mg, then DNCB gel 100 µg, 48 Hours
[16] = 24 Hours Pretreat 15 mg + DNCB 100 µg, 24 Hours
[17] = 24 Hours Pretreat 15 mg + DNCB 100 µg, 48 Hours
[18] = Co-Delivery, 10 mg + DNCB 100 µg, 24 Hours
[19] = Co-Delivery, 10 mg + DNCB 100 µg, 48 Hours

CCN(CC)CCCC(C)Nc1ccnc2cc(Cl)ccc12 (centres unmarked) [chloroquine, Chloroquine, reference compound]
% SUPPRESSION ([1]; 200 µg intradermally, TNBS 2.45 mg, 24 Hours): 39.6%
% SUPPRESSION ([1]; 200 µg intradermally, TNBS 2.45 mg, 48 Hours): 46.5%

O=C(O)/C=C\c1c[nH]cn1 [cis-UCA, cis-urocanic acid]
fluxes through human skin (comparison of isomers) [2]: comparable fluxes
% SUPPRESSION ([3]; intradermal injection 200 µg, 24 Hours): 48% and 48.4%
% SUPPRESSION ([3]; intradermal injection 200 µg, 48 Hours): 32% and 31.6%
% SUPPRESSION ([3]; pretreatment + co-administration, 24 Hours): 53%
% SUPPRESSION ([3]; pretreatment only, 6% UCA PBS pH 5.5, 24 Hours): 68%
% SUPPRESSION [4, 8]: 71%
EAR SWELLING [4, 8]: 26 mm X 10^3
EAR SWELLING [4, 9]: 48 mm X 10^3
EAR THICKNESS [4, 9]: 288 ± 23 mm X 10^3
EAR THICKNESS ([4]; 2 mg (1%) HPMC gel, 24 h pretreatment, DNCB 100 µg, 24 Hours): 270 ± 16 mm X 10^3
% SUPPRESSION [4, 10]: 80%
EAR SWELLING [4, 10]: 18 mm X 10^3
EAR THICKNESS [4, 10]: 261 ± 15 mm X 10^3
% SUPPRESSION [4, 11]: 59%
EAR SWELLING [4, 11]: 30 mm X 10^3
EAR THICKNESS [4, 11]: 270 ± 15 mm X 10^3
EAR THICKNESS ([4]; 5 Hours Pretreat 15 mg (7.5% gel) + DNCB 100 µg, 24 Hours): 285 ± 27 mm X 10^3
% SUPPRESSION [4, 12]: 46%
EAR SWELLING [4, 12]: 42 mm X 10^3
% SUPPRESSION [4, 13]: 27%
EAR SWELLING [4, 13]: 42 mm X 10^3
EAR THICKNESS [4, 13]: 284 ± 20 mm X 10^3
EAR THICKNESS ([4]; 24 Hours Pretreat 10 mg (5% gel), then DNCB gel 100 µg, 24 Hours): 260 ± 19 mm X 10^3
% SUPPRESSION [4, 14]: 52%
EAR SWELLING [4, 14]: 29 mm X 10^3
% SUPPRESSION [4, 15]: 69%
EAR SWELLING [4, 15]: 20 mm X 10^3
EAR THICKNESS [4, 15]: 259 ± 12 mm X 10^3
EAR THICKNESS ([4]; 24 Hours Pretreat 15 mg (7.5% gel) + DNCB 100 µg, 24 Hours): 288 ± 25 mm X 10^3
% SUPPRESSION [4, 16]: 59%
EAR SWELLING [4, 16]: 47 mm X 10^3
% SUPPRESSION [4, 17]: 54%
EAR SWELLING [4, 17]: 36 mm X 10^3
EAR THICKNESS [4, 17]: 276 ± 14 mm X 10^3
EAR THICKNESS ([4]; Co-Delivery, 10 mg (5% gel) + DNCB 100 µg, 24 Hours): 277 ± 27 mm X 10^3
% SUPPRESSION [4, 18]: not statistically significant
EAR SWELLING [4, 18]: 39 mm X 10^3
% SUPPRESSION ([4]; Co-Delivery, 10 mg + DNCB 100 µg, 24 Hours, listed as UCA): 28%
% SUPPRESSION [4, 19]: 29%
EAR SWELLING [4, 19]: 43 mm X 10^3
EAR THICKNESS [4, 19]: 273 ± 23 mm X 10^3
EAR THICKNESS ([5]; 2 mg (1% HPMC gel) day -1): 327 ± 60 mm X 10^3
% SUPPRESSION ([5]; 2 mg day -1): 51%
EAR SWELLING ([5]; 2 mg day -1): 70 mm X 10^3
EAR THICKNESS ([5]; 10 mg (5% HPMC gel) day -1): 334 ± 17 mm X 10^3
% SUPPRESSION ([5]; 10 mg day -1): 42%
EAR SWELLING ([5]; 10 mg day -1): 84 mm X 10^3
appearance of treated skin site ([6]; 2% gel, 14 hours after initiation of treatment): depressed (appearing normal) and lacked any red color
erythema and induration of inflamed skin ([6]; 2% in hydroxylpropylmethyl cellulose gel, 2-3 cm^2 area, approximately 1 hour after application): erythema and induration disappeared
chymase positive mast cell per mm^2 ([7]; 1 µg/ml in culture medium): 22 ± 20 per mm^2
chymase positive mast cell per mm^2 ([7]; 10 µg/ml in culture medium): 20 ± 10 per mm^2
% SUPPRESSION ([1]; 200 µg, 24 hours before TNBS 3.5 mg, 24 hours after challenge): 36%
% SUPPRESSION ([1]; 600 µg, 24 hours before TNBS 3.5 mg, 24 hours after challenge): 63%
% SUPPRESSION ([1]; pretreatment + co-administration, TNBS 35 µg, 24 Hours): 52.8%
% SUPPRESSION ([1]; pretreatment + co-administration, TNBS 35 µg, 48 Hours): 56%
% SUPPRESSION ([1]; pretreatment + co-administration, TNBS 35 µg, 48 Hours, listed as cis-UROCANIC ACID): 55.8%
% SUPPRESSION ([1]; pretreatment only, 6% UCA PBS pH 5.5, TNBS 35 µg, 24 Hours): 68.3%
% SUPPRESSION ([1]; pretreatment only, 6% UCA PBS pH 5.5, TNBS 35 µg, 48 Hours): 77%
% SUPPRESSION ([1]; pretreatment only, 6% UCA PBS pH 5.5, TNBS 35 µg, 48 Hours, listed as cis-UROCANIC ACID): 77.2%

CN1CC[C@]23c4c5ccc(O)c4O[C@H]2[C@@H](O)C=C[C@H]3[C@H]1C5.O=S(=O)(O)O [morphine sulfate, reference compound]
chymase positive mast cell per mm^2 ([7]; 5 mM in culture medium, positive control): 37 ± 15 per mm^2
